Test results as given in patent publication US7838562B2, “Methods of inhibiting vascular permeability and apoptosis” (University of Connecticut, priority 2004, dated 2010).

Assays:
[1] = tested on: kinase activity present in HUVEC (sphingosine kinase); assay: in vitro kinase assay with total cell extract from HUVEC; type: biochemical, human; conditions: HUVEC total cell extract; 100 μM FTY720 or AAL, 20 μM sphingosine; 30 minutes
Description: To confirm that FTY720 and (R)-AAL are phosphorylated by endothelial cells, an in vitro kinase assay was performed with both total cell extract and conditioned medium from HUVEC. […] Cells were scraped at 4° C. with 400 μl of 25 mM HEPES pH 7.5, […], 1× protease inhibitor mixture, and disrupted by brief sonication. Cellular homogenates were centrifuged for 10 minutes, 4° C. at 20,000×g. In the kinase assay, 300 μl of conditioned medium (derived from 5×10^5 cells for 3 hours of incubation) or 10 μg of total cell extract from HUVEC were used as a source of kinase activity. […] Lipids were extracted and samples were resuspended in 50 μl of chloroform. Lipids were resolved by TLC on Silica Gel G60 using 1-butanol/acetic acid/water (60/20/20 volume/volume) buffer and quantified with a PhosphorImager (Molecular Dynamics).

SK2 = target: T1, SK2 (Mus musculus, UniProt Q9JIA7); conditions: SK2-[…]T; 100 μM FTY720 or (R)-AAL, 20 μM sphingosine
T1 sequence (Q9JIA7 1-617): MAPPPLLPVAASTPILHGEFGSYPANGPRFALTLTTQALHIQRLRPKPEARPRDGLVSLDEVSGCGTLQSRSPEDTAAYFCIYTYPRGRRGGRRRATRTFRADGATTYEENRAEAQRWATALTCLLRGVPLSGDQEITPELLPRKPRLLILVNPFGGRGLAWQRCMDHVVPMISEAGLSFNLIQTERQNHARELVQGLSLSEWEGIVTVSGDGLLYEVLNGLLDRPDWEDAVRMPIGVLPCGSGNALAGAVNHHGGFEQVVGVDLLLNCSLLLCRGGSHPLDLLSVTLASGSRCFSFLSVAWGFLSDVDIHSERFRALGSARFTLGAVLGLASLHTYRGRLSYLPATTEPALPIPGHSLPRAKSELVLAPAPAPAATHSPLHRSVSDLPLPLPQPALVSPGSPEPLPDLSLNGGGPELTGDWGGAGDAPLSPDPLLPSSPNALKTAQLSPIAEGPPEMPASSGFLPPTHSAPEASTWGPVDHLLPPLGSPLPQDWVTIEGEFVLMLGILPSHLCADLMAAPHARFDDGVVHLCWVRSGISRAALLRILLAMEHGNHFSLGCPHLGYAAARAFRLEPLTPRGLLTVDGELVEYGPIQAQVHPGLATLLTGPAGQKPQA

SK1 = SK1 (Mus musculus, UniProt Q8CI15); conditions: SK1-293T; 20 μM sphingosine
phospho-Akt = assay: Western blot of Akt phosphorylation in HUVEC; type: cell-based, human; conditions: 5 minute stimulation
Excerpt: (§1) Endothelial cell morphogenesis, a phenomenon that requires endothelial cell migration, survival and adherens junction assembly, is mediated by the ligand-dependent activation of S1P1 and S1P3 receptors. […] The effects of FTY720-P and analogs on Akt and ERK phosphorylation in HUVEC were studied in a Western blot analysis. Confluent cultures of HUVEC cells were serum starved for two hours in 0.1% ffa-BSA M199 before treatments. Then, they were washed with ice-cold phosphate buffered saline (PBS) containing 1 mM sodium fluoride and 1 mM sodium orthovanadate and homogenized in radioimmunoprecipitation assay buffer (0.1% sodium dodecyl sulfate (SDS), 0.5% sodium deoxycholate, 1% NP-40, 1 mM sodium orthovanadate, 50 mM β-glycerophosphate and 1× protease inhibitor cocktail). Samples were centrifuged 10,000×g for 10 minutes, and protein concentrations of supernatants were determined by Bradford assay (BioRad Protein Dye Reagent). Equal amounts of protein were separated on a 10% polyacrylamide gel and blotted to a nitrocellulose membrane. Immunoblot analysis was performed using Phospho-Akt, Akt, phospho-ERK1/2 or ERK-1/2 antibodies.

phospho-ERK-1/2 = assay: Western blot of ERK-1/2 phosphorylation in HUVEC; type: cell-based, human; conditions: 5 minute stimulation
Excerpt: as §1

[2] = tested on: VEGF-induced vascular permeability; assay: mouse ear microvascular permeability assay (VEGF-induced); type: in vivo, FVB/N mice; conditions: mice, single oral administration (gavage, 50 μg) 5 hours prior
Description: The role of plasma borne FTY720-P or (R)-AFD in the regulation of vascular permeability was tested in vivo. In order to test this possibility, an in vivo vascular permeability model was used in FTY720, (R)-AFD or (S)-AAL-pretreated mice. […] Five hours post-gavage, animals were anesthetized with 2% Avertin™ (0.5 cc/20 g) and infused through the tail vein with 100 μl FITC-dextran (5 mg/ml, 165 kDa). Animals were placed on a warming table under a fluorescent dissecting microscope (Zeiss STV11, Zeiss, Inc.) and the central vessels in the ear were imaged. Control saline or mouse vascular endothelial growth factor (mVEGF, 10 ng/ml) was injected subdermally into the middle ear using a 30 gauge needle (30 μl). Ear vasculature was then imaged with fixed exposure times in a stationary position from 5 minutes to 120 minutes post-injection. Fluorescence images were then quantified using pixel-based threshold in ImageProPlus (Media Cybernetics, Inc.) and quantified.

VE-cadherin = VE-cadherin localization by immunofluorescence in HUVEC; type: cell-based, human; conditions: 30 minutes; 10 nM (S1P 100 nM)
Description: The effects of FTY720-P and (R)-AFD on the localization of VE-cadherin were studied using immunofluorescence analysis. In this study, 2×10^5 cells were plated in 35 millimeter glass bottom petri dishes. Three days later, the cells were washed and serum starved for 3 hours before treatments. Then, the cells were washed with ice-cold PBS, fixed, and immunofluorescence analysis with VE-cadherin antibody was conducted (1 μg/ml Santa Cruz). The primary antibody staining was visualized with Rhodamine-conjugated goat anti-mouse (1:1000, Cappel) IgG. Confocal microscopy was conducted on a Zeiss LSM 510 laser-scanning confocal microscope. Rhodamine fluorescence was excited using a 543 nm Helium/Neon laser and emitted fluorescence was detected with a […] long-pass filter.

HUVEC = HUVEC migration (96 well chemotaxis microchamber)
Description: Briefly, polycarbonate filters with a pore size of 8 micrometers (μm) were coated with 5 micrograms per milliliter (μg/ml) fibronectin. […] Approximately 5×10^4 cells suspended in M199 with 0.1% bovine serum albumin were placed in the upper compartment. The cells were allowed to migrate for 4 hours at 37° C. in a humidified chamber with 5% CO2. After the incubation period, the filter was removed, and cells were stained in 0.1% crystal violet and eluted with 10% acetic acid in 96-well plates.
After incubation, conditioned medium was removed, centrifuged at 1,000×g for 10 minutes, and used in the migration assay.

Sequence of SK1 (Q8CI15 1-388 isoform Q8CI15-2): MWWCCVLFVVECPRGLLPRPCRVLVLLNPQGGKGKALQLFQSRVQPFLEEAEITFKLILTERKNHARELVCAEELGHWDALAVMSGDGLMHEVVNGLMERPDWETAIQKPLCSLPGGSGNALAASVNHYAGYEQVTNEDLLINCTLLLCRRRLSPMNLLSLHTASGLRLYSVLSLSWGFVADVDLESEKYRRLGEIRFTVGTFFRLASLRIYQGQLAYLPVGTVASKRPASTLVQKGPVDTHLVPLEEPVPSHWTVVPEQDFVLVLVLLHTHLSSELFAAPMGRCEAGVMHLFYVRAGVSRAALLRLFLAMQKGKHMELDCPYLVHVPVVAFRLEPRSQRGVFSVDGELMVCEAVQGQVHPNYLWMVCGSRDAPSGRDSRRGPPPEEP

Row | SMILES | specific activity (phosphorylation of the substrate) [1] | specific activity (phosphorylation of the substrate) (SK2) | specific activity (phosphorylation of the substrate) (SK1) | Akt phosphorylation (in words) (phospho-Akt) | ERK-1/2 phosphorylation (in words) (phospho-ERK-1/2) | inhibition of vascular permeability induced by VEGF [2] | VE-cadherin localization at cell-cell contact regions / translocation to adherens junctions (VE-cadherin) | migration induced by conditioned medium (HUVEC; compound incubated with HUVEC for 3 hours, conditioned medium used as chemoattractant) | induction of endothelial cell migration (HUVEC; compound used directly as chemoattractant, 4 hours)
1 | CCCCCCCCCCCCC/C=C/[C@@H](O)[C@@H](N)CO [sphingosine, Sphingosine] | 75.7 ± 6 pmol/mg/min | 319.9 pmol/min/mg | 48.1 pmol/mg/min |  |  |  |  |  | 
2 | CCCCCCCCc1ccc(CCC(N)(CO)CO)cc1 [FTY720, 2-amino-2-[2-(4-octaphenyl)ethyl]propane-1,3 diol, reference compound] | 3.85 ± 0.75 pmol/mg/min | 41.6 pmol/min/mg |  | did not induce phospho-Akt or phospho-ERK-1/2 levels | did not induce phospho-Akt or phospho-ERK-1/2 levels | profoundly suppressed vascular permeability induced by VEGF | did not induce VE-cadherin translocation to the adherens junctions | activated into potent chemoattractants for endothelial cells | Neither FTY720 nor its structural analog (R)-AAL induced endothelial cell migration
